From publication PMC11187260, “Unraveling the interconversion pharmacokinetics and oral bioavailability of the major ginger constituents: [6]-gingerol, [6]-shogaol, and zingerone after single-dose administration in rats” (Frontiers in Pharmacology, 2024)
Each block holds one compound with its values, some of them ahead of it.

Columns and labels:
Format in all cases: in vivo, Female Sprague Dawley rats
[1] = Pharmacokinetics after single intravenous administration (3 mg/kg), plasma LC-MS/MS; conditions: mean ± SD n=6
Experimental: This study is composed of two sections; the first section involves an investigation of the interconversion pharmacokinetics of the pure compounds, and the second focuses on tissue distribution. All rats were transferred to metabolic cages and fasted overnight for at least 10 h. The animals were then randomly divided into four groups (6 rats/group) to receive a single intravenous (i.v.) administration of either 6G, 6S, zingerone, or vehicle via the lateral tail vein at a dosage of 3 mg/kg. After a 7-week washout period, the rats received 30 mg/kg of the same test compounds through a single oral (p.o.) administration. Following each administration, blood samples (300 µL) were collected in heparinized tubes from the lateral tail vein (while rats were under anesthesia with isoflurane) at specified time points: 0.083, 0.25, 0.5, 1, 1.5, 2, 3, 4, 6, 8, and 24 h after administration. An additional 1 mL of blood sample was collected from each rat at pre-dose (0 h) and post-dose (24 h) for clinical laboratory testing and safety evaluation. All heparinized blood samples were initially centrifuged at 5,000 × g, 4 °C, for 10 min. Subsequently, the plasma was carefully transferred to a cryotube as an aliquot sample and then stored at −40 °C until analysis. Urine and feces were collected during the intervals of 0–24 h and 24–48 h post-dosing, and their weights and volumes were documented. All collected urine and feces samples were stored at −40 °C until analysis. Plasma samples were processed through protein precipitation. In brief, 50 µL of plasma was mixed with 200 µL of methanol containing 50 ng/mL of IS (dihydrocapsaicin). The mixtures were vortexed and centrifuged at 14,000 × g at 4 °C for 10 min. The supernatant was filtered through a […] PVDF membrane (Chrome Tech, MN, USA) before analysis. Investigation of glucuronide conjugations followed a previously published method with some modification ([Wang et al., 2017]; [Songvut et al., 2023]). A 50 μL aliquot of plasma, urine, or feces sample was incubated at 37 °C for a minimum of 30 min with 50 μL of β-glucuronidase (3,000 U/mL) in a sodium phosphate buffer (pH 6.8). For sample extraction, 150 μL of methanol containing 50 μg/L of IS was pipetted into the pre-incubated samples. Subsequently, the mixtures were vortexed for 10 min and then centrifuged at 14,000 × g at 4 °C for 10 min. The supernatants were filtered through a […] PVDF membrane (Chrome Tech, MN, United States) and then analyzed using the validated LC-MS/MS method. Quantitative analysis was conducted using liquid chromatography-tandem mass spectrometry (LC-MS/MS) with a Nexera X2 LCMS-8060NX instrument (Shimadzu, Japan). The instrument included a CBM-40lite system controller, CTO-40C column oven, SIL-40C XR autosampler, LC-40D XR solvent pump unit, FCV-DGU-403 degasser, and 20AH2 switching valve. The LC-MS/MS system was operated with a binary pump and equipped with a triple quadrupole mass spectrometer. Pharmacokinetic parameters were assessed using PK Solutions software (version 2.0) with non-compartmental analysis. The AUC was calculated using the Linear-Log Trapezoidal Method. The maximum plasma concentration (Cmax) and time to reach maximum plasma concentration (Tmax) were taken directly from the graph.

[2] = Percent recovery in urine and feces after intravenous or oral administration; conditions: % of administered dose
Experimental: (§1) This study is composed of two sections; the first section involves an investigation of the interconversion pharmacokinetics of the pure compounds, and the second focuses on tissue distribution. All rats were transferred to metabolic cages and fasted overnight for at least 10 h. The animals were then randomly divided into four groups (6 rats/group) to receive a single intravenous (i.v.) administration of either 6G, 6S, zingerone, or vehicle via the lateral tail vein at a dosage of 3 mg/kg. After a 7-week washout period, the rats received 30 mg/kg of the same test compounds through a single oral (p.o.) administration. Following each administration, blood samples (300 µL) were collected in heparinized tubes from the lateral tail vein (while rats were under anesthesia with isoflurane) at specified time points: 0.083, 0.25, 0.5, 1, 1.5, 2, 3, 4, 6, 8, and 24 h after administration. An additional 1 mL of blood sample was collected from each rat at pre-dose (0 h) and post-dose (24 h) for clinical laboratory testing and safety evaluation. All heparinized blood samples were initially centrifuged at 5,000 × g, 4 °C, for 10 min. Subsequently, the plasma was carefully transferred to a cryotube as an aliquot sample and then stored at −40 °C until analysis. Urine and feces were collected during the intervals of 0–24 h and 24–48 h post-dosing, and their weights and volumes were documented. All collected urine and feces samples were stored at −40 °C until analysis.
Urine samples were centrifuged, and 50 µL of urine was extracted with 200 µL of 100% methanol. The mixture was vortexed for 10 min and subsequently centrifuged at 14,000 × g at 4 °C for 10 min. Feces and organs were weighed and homogenized with methanol (50:50% w/v). The supernatants of the extracted urine, feces, and organs were also filtered through a […] PVDF membrane (Chrome Tech, MN, USA) before analysis.
(§2) Investigation of glucuronide conjugations followed a previously published method with some modification ([Wang et al., 2017]; [Songvut et al., 2023]). A 50 μL aliquot of plasma, urine, or feces sample was incubated at 37 °C for a minimum of 30 min with 50 μL of β-glucuronidase (3,000 U/mL) in a sodium phosphate buffer (pH 6.8). For sample extraction, 150 μL of methanol containing 50 μg/L of IS was pipetted into the pre-incubated samples. Subsequently, the mixtures were vortexed for 10 min and then centrifuged at 14,000 × g at 4 °C for 10 min. The supernatants were filtered through a […] PVDF membrane (Chrome Tech, MN, United States) and then analyzed using the validated LC-MS/MS method.
(§3) Plasma concentration-time profiles were plotted using GraphPad Prism 9.3.0 (GraphPad Software, USA). The absolute oral bioavailability was calculated as follows: F = (AUC p.o./dose p.o.)/(AUC i.v./dose i.v.). The percentage recovery of each administered compound was calculated as the total amount of the drug found in urine or feces divided by the administered dose. The tissue-to-plasma concentration ratios (K p) were calculated by dividing the concentration in the tissue by the corresponding plasma concentration at the respective sampling time point.

[3] = Pharmacokinetics and oral bioavailability after single oral administration (30 mg/kg), plasma LC-MS/MS; conditions: for AUC(0-t) / AUC(0-∞) / Cmax (obs): mean ± SD n=6; for Tmax (obs): median [IQR]
Experimental: as §1
Plasma samples were processed through protein precipitation. In brief, 50 µL of plasma was mixed with 200 µL of methanol containing 50 ng/mL of IS (dihydrocapsaicin). The mixtures were vortexed and centrifuged at 14,000 × g at 4 °C for 10 min. The supernatant was filtered through a […] PVDF membrane (Chrome Tech, MN, USA) before analysis.
as §2
Quantitative analysis was conducted using liquid chromatography-tandem mass spectrometry (LC-MS/MS) with a Nexera X2 LCMS-8060NX instrument (Shimadzu, Japan). The instrument included a CBM-40lite system controller, CTO-40C column oven, SIL-40C XR autosampler, LC-40D XR solvent pump unit, FCV-DGU-403 degasser, and 20AH2 switching valve. The LC-MS/MS system was operated with a binary pump and equipped with a triple quadrupole mass spectrometer.
Pharmacokinetic parameters were assessed using PK Solutions software (version 2.0) with non-compartmental analysis. The AUC was calculated using the Linear-Log Trapezoidal Method. The maximum plasma concentration (Cmax) and time to reach maximum plasma concentration (Tmax) were taken directly from the graph.
as §3

[4] = plasma analyte after [6]-gingerol i.v. 3 mg/kg
[5] = intravenous administration 3 mg/kg of parent compound
[6] = oral administration 30 mg/kg of parent compound
[7] = plasma analyte after [6]-gingerol p.o. 30 mg/kg
[8] = plasma analyte after [6]-shogaol i.v. 3 mg/kg
[9] = plasma analyte after [6]-shogaol p.o. 30 mg/kg
[10] = plasma analyte after zingerone i.v. 3 mg/kg
[11] = plasma analyte after zingerone p.o. 30 mg/kg

- AUC(0-t) [1, 4]: 11,087.06 ± 7,432.61 ng-h/mL
- AUC(0-∞) [1, 4]: 11,087.09 ± 7,432.598 ng-h/mL
- % Recovery excretion, urine T 0–24 h [2, 5]: 5.712 ± 2.768%
- % Recovery excretion, urine T 24–48 h [2, 5]: 0.146 ± 0.073%
- % Recovery excretion, urine T 0–24 h [2, 6]: 3.416 ± 1.735%
- % Recovery excretion, urine T 24–48 h [2, 6]: 0.036 ± 0.027%
- AUC(0-t) [3, 7]: 549.22 ± 272.42 ng·h/mL
- AUC(0-∞) [3, 7]: 603.05 ± 268.67 ng·h/mL
- Cmax (obs) [3, 7]: 539.42 ± 377.66 ng/mL
- Tmax (obs) [3, 7]: 0.25 [0.00] h
Compound: [6]-gingerol glucuronide

- AUC(0-t) [1, 8]: 7,966.49 ± 3,782.71 ng-h/mL
- AUC(0-∞) [1, 8]: 7,974.90 ± 3,786.32 ng-h/mL
- % Recovery excretion, feces T 0–24 h [2, 5]: 0.003 ± 0.003%
- % Recovery excretion, feces T 24–48 h [2, 5]: 0.004 ± 0.001%
- % Recovery excretion, urine T 0–24 h [2, 5]: 0.153 ± 0.112%
- % Recovery excretion, urine T 24–48 h [2, 5]: <0.001%
- % Recovery excretion, urine T 0–24 h [2, 6]: 0.042 ± 0.037%
- % Recovery excretion, urine T 24–48 h [2, 6]: <0.001%
- AUC(0-t) [3, 9]: 11.88 ± 1.87 ng·h/mL
- AUC(0-∞) [3, 9]: 11.89 ± 1.87 ng·h/mL
- Cmax (obs) [3, 9]: 18.54 ± 6.93 ng/mL
- Tmax (obs) [3, 9]: 0.375 [0.25] h
Compound: CCCCC/C=C/C(=O)CCc1ccc(O[C@@H]2O[C@H](C(=O)O)[C@@H](O)[C@H](O)[C@H]2O)c(OC)c1 [[6]-shogaol glucuronide]

- AUC(0-t) [1, 10]: 12,873.76 ± 12,580.54 ng-h/mL
- AUC(0-∞) [1, 10]: 12,903.70 ± 12,585.11 ng-h/mL
- % Recovery excretion, urine T 0–24 h [2, 5]: 7.396 ± 6.349%
- % Recovery excretion, urine T 24–48 h [2, 5]: <0.001%
- % Recovery excretion, urine T 0–24 h [2, 6]: 4.245 ±3.009%
- % Recovery excretion, urine T 24–48 h [2, 6]: 0.166 ± 0.075%
- AUC(0–∞) of glucuronide compared to AUC(0–∞) of unconjugated compound ([3]; after zingerone oral administration 30 mg/kg): 6 fold
- AUC(0-t) [3, 11]: 5847.24 ± 134.65 ng·h/mL
- AUC(0-∞) [3, 11]: 5847.24 ± 134.65 ng·h/mL
- Cmax (obs) [3, 11]: 4593.37 ± 1192.68 ng/mL
- Tmax (obs) [3, 11]: 0.25 [0.00] h
Compound: COc1cc(CCC(C)=O)ccc1O[C@@H]1O[C@H](C(=O)O)[C@@H](O)[C@H](O)[C@H]1O [zingerone glucuronide]
